The test system of series [1] is Aβ and tau deposits. Put plainly: Co-staining of AD brain sections with PBB3 and Example Compound 3b. The class given is binding, human. The settings on record: simultaneous 100 nM PBB3 and 100 nM Example Compound 3b. On the procedure:
Frozen brain sections (20 μm) were fixed in 96% EtOH, rehydrated in 50% EtOH and de-ionized water and then incubated in phosphate buffered saline (PBS, 10 mM phosphate, 140 mM NaCl, 2.7 mM KCl, pH 7.4) for 10 min. Solutions containing 100 nM PBB3 and 100 nM Example Compound 3b or 100 nM q-FTAA-CN and 100 nM Example Compound 3a in PBS were added to the sections. After 30 min, the sections were washed with PBS and mounted with Dako fluorescent mounting medium (Dako Cytomation, Glostrup, Denmark). The mounting medium was allowed to solidify over night before collecting emission spectra of the compounds bound to misfolded A ? and tau using an inverted LSM 780 confocal microscope (Carl Zeiss, Oberkochen, Germany) with excitation wavelengths at 405 nm (PBB3 and q-FTAA-CN) and 561 nm (Example Compound 3a and Example Compound 3b).

The target of series [2] is T1, tau aggregates (Homo sapiens, UniProt P10636).
T1 construct: tissue sections (20 μm) from human AD brain; from tissue; host or cells: human AD brain tissue sections (20 μm)
Put plainly: Example Compound 3b staining of AD brain sections pre-incubated with PBB3 or PBS. The class given is binding. On the procedure: (§1) Frozen brain sections (20 μm) were fixed in 96% EtOH, rehydrated in 50% EtOH and de-ionized water and then incubated in phosphate buffered saline (PBS, 10 mM phosphate, 140 mM NaCl, 2.7 mM KCl, pH 7.4) for 10 min. The sections were stained with solutions containing 1 ? M PBB3 or 1 ? M q-FTAA-CN in PBS for 30 min and after rinsing three times with PBS, the sections was stained with a solution containing 10 nM Example Compound 3b. After 30 min, the sections were washed with PBS and mounted with Dako fluorescent mounting medium (Dako Cytomation, Glostrup, Denmark). The mounting medium was allowed to solidify over night before collecting emission spectra of the compounds bound to misfolded Aβ and tau using an inverted LSM 780 confocal microscope (Carl Zeiss, Oberkochen, Germany) with excitation wavelengths at 405 nm (PBB3 and q-FTAA-CN) and 561 nm (Example Compound 3b).

Series [3] has as its system Aβ and tau deposits. Put plainly: Staining of AD brain sections with PBB3 alone. The format is binding, human. The settings on record: 100 nM PBB3 alone in PBS pH 7.4, FIG. 6A. On the procedure:
as §1, with “100 nM” for “1 ? M”, “PBB3” for “PBB3 or 1 ? M q-FTAA-CN”, “with” for “with PBS, the sections was stained with a solution containing 10 nM Example Compound 3b. After 30 min, the sections were washed with”, “PBS” for “PBS and”, “compound” for “compounds”, “(PBB3).” for “(PBB3 and q-FTAA-CN) and 561 nm (Example Compound 3b).”

The target in another series is T2, Aβ aggregates (Homo sapiens, UniProt P05067).
T2 construct: compound and antibody double staining of Aβ or tau aggregates; from tissue; host or cells: human AD brain tissue sections (20 μm)
The experiment in a line: Compound and antibody 4G8 double staining of AD brain tissue sections. The format is binding. The settings on record: for Overlap between Fluorescence from tested compound and fluorescence from 4G8 observed / Fluorescence from tested compound observed: 100 nM compound, human AD brain tissue sections; for Overlap between Fluorescence from tested compound and fluorescence from 4G8 observed: Aβ antibody 4G8; for Fluorescence from tested compound observed: double staining with Aβ antibody 4G8; for Fluorescence from 4G8 observed: signal of Aβ antibody 4G8 in the section stained with 100 nM of the compound. As for the experimental part:
(§2) To achieve compound and antibody double staining of Aβ or tau aggregates, tissue sections (20 μm) from human AD brain were fixed in 70% EtOH at 4° C. for 3 min, rehydrated in distilled water and then incubated in PBS for 30 min. Sections were blocked and permeabilized in PBS with 5% normal goat serum and 0.1% triton X-100 (blocking buffer) for 1 h at room temperature (RT). Antibody 4G8 (Biolegend, San Diego, Calif., USA) reactive to Aβ, and AT100 (Thermo Fisher Scientific, Waltham, Mass., USA) directed against tau phosphorylated at […] (3) were diluted 1:500 and 1:1000, respectively, in blocking buffer and added to the sections. After 16 h incubation at 4° C. unbound antibody was removed by washing in PBS with 0.1% triton X-100 (PBS-T) 3×10 min. To visualize antibody binding to Aβ or tau aggregates sections were incubated with goat anti-mouse secondary antibody labelled with Alexa 647 (Thermo Fisher Scientific). The antibody was diluted 1:200 in blocking buffer and after 1 h incubation at RT sections were washed in PBS 3×10 min. Example Compound 3a, Example Compound 3b, Example Compound 3c, Example Compound 3d, Example Compound 3e, Example Compound 3f, Example Compound 3g, Example Compound 3h, Example Compound 3i, Example Compound 3j, Example Compound 3k, Example Compound 3m, Example Compound 3n, Example Compound 3o, Example Compound 3p, Example Compound 3q, Example Compound 3r, Example Compound 3s, Example Compound 3t, Example Compound 3u, Example Compound 8a, Comparative Example 1, Comparative Example 2, Comparative Example 3 and Comparative Example 4 were dissolved in DMSO to a concentration of 1.5 mM and then further diluted in PBS to a final concentration of 100 nM compound prior to staining. The tissue sections were then stained for 30 min at RT with these freshly prepared solutions containing 100 nM of the respective compound in PBS. After three washes in PBS the sections were mounted in Dako mounting medium for fluorescence (Dako Cytomation, Glostrup, Denmark) and allowed to dry overnight before analysis. Fluorescence images were collected using an inverted LSM 780 confocal microscope (Carl Zeiss, Oberkochen, Germany) with the following excitation/emission wavelengths optimized for each compound: 458/484-600 (Comparative Example 1, Comparative Example 3), 561/569-648 (Example Compound 3a, Example Compound 3b, Example Compound 3c, Example Compound 3d, Example Compound 3e, Example Compound 3f, Example Compound 3g, Example Compound 3h, Example Compound 3i, Example Compound 3j, Example Compound 3k, Example Compound 3m, Example Compound 3n, Example Compound 3o, Example Compound 3p, Example Compound 3q, Example Compound 3r, Example Compound 3s, Example Compound 3t, Example Compound 3u, Example Compound 8a, Comparative Example 2 and Comparative Example 4) and 633/638-755 (Alexa 647). To visualize autofluorescent lipofuscin excitation/emission wavelengths 405/410-480 or 405/410-514 were used.

Series [4] has as its target T1, tau aggregates. The experiment in a line: Compound and antibody AT100 double staining of AD brain tissue sections. The settings on record: for Labelling of immune-positive NFTs and dystrophic neurites / Fluorescence from tested compound observed / Overlap between Fluorescence from tested compound and fluorescence from AT-100 observed: 100 nM compound; for Labelling of immune-positive NFTs and dystrophic neurites: AT100 co-staining, AD brain sections; for Fluorescence from tested compound observed / Overlap between Fluorescence from tested compound and fluorescence from AT-100 observed: human AD brain tissue sections; for Fluorescence from tested compound observed: double staining with tau antibody AT-100; for Overlap between Fluorescence from tested compound and fluorescence from AT-100 observed: tau antibody AT-100; for Fluorescence from AT-100 observed: signal of tau antibody AT-100 in the section stained with 100 nM of the compound. The class given is binding. As for the experimental part: as §2

Series [5] is described as follows: Excitation and emission spectra of compounds in DMSO or PBS. Conditions: 300 nM in DMSO or PBS pH 7.4. The format is physicochemical. On the procedure:
Stock solutions of Example Compound 3a, Example Compound 3b, Example Compound 3c, Example Compound 3d and Example Compound 8a (1.5 mM in DMSO) were diluted to 300 nM in phosphate buffered saline (PBS, 10 mM phosphate, 140 mM NaCl, 2.7 mM KCl, pH 7.4) or DMSO. Excitation and emission spectra of the compounds were collected using an Infinite M1000 Pro microplate reader (Tecan, Männedorf, Switzerland).

For series [6], the target named is T1, tau aggregates. The experiment in a line: Example Compound 3b staining of AD brain sections pre-incubated with q-FTAA-CN. The format is binding. Conditions: FIG. 7H, pre-incubated with 1 μM q-FTAA-CN, then 10 nM Example Compound 3b. On the procedure: as §1
The mark [7] stands for this setting: FIG. 7F, pre-incubated with 1 μM PBB3, then 10 nM Example Compound 3b.

T1 sequence (P10636 1-441 isoform P10636-8): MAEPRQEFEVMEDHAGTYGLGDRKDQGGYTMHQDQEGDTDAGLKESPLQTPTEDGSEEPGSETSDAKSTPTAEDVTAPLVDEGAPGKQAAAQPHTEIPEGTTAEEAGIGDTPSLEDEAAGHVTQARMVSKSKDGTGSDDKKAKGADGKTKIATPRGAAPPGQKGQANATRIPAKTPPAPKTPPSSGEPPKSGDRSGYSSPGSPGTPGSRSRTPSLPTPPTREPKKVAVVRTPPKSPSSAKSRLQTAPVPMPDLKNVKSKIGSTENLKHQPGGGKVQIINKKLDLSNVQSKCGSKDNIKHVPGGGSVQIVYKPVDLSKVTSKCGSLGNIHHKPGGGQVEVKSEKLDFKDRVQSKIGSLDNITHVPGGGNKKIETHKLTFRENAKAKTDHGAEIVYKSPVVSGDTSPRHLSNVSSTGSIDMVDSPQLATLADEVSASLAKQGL
T2 sequence (P05067 672-713 limits assumed): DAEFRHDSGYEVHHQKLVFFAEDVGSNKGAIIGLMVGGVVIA

On to `CNc1ccc(/C=C/C=C/c2nc3ccc(O)cc3s2)cn1` [PBB3, reference compound], for which the “Fluorescence from PBB3 observed” value was “yes” in the series with Aβ and tau deposits [1] (FIG. 7E); “both the Aβ and tau deposits exhibited strong PBB3 fluorescence and yes” at tau aggregates [2] (setting [7]). The “Deposits labelled” value was “Aβ deposits were visualized by the fluorescence from PBB3” in the series on Aβ and tau deposits [1]; “labelled both Aβ and tau deposits” with Aβ and tau deposits [3].

As to `COC(=O)c1ccc(-c2ccc(/C=C/c3nc4ccccc4s3)s2)s1` [Example Compound 8a], on Aβ aggregates, the “Overlap between Fluorescence from tested compound and fluorescence from 4G8 observed” value was “no correlation and no”; the “Fluorescence from tested compound observed” value is on record as “yes”; the “Fluorescence from 4G8 observed” value was “yes”. For the same compound, at tau aggregates [4], the “Labelling of immune-positive NFTs and dystrophic neurites” value was “labelled both immune-positive NFTs and dystrophic neurites”; the “Fluorescence from tested compound observed” value was “yes”; the “Overlap between Fluorescence from tested compound and fluorescence from AT-100 observed” value is reported as “yes”; the “Fluorescence from AT-100 observed” value is “yes”. Besides, in series [5], the “Excitation and emission spectra when switching solvent from DMSO to PBS” value is “solvatochromatic behavior rendering a blue-shifted excitation spectrum, as well as a red-shifted emission spectrum”.

As for `CC[n+]1c(/C=C/c2ccc(-c3ccc(I)s3)s2)sc2ccccc21` [Example Compound 3b], on Aβ aggregates, the “Overlap between Fluorescence from tested compound and fluorescence from 4G8 observed” value was “no correlation and no”; the “Fluorescence from tested compound observed” value is listed as “yes”; the “Fluorescence from 4G8 observed” value is on record as “yes”. At tau aggregates [4], the “Labelling of immune-positive NFTs and dystrophic neurites” value was “labelled both immune-positive NFTs and dystrophic neurites”; the “Fluorescence from tested compound observed” value was “yes”; the “Overlap between Fluorescence from tested compound and fluorescence from AT-100 observed” value was “yes”; the “Fluorescence from AT-100 observed” value was “yes”. For the same compound, in the series on Aβ and tau deposits [1] (FIG. 7E), the “Fluorescence from Example Compound 3b observed” value is “yes”; the “Overlap between Fluorescence from Example Compound 3b and fluorescence from PBB3” value is reported as “no”. In addition, in the series with Aβ and tau deposits [1], the “Deposits labelled” value was “tau deposits, NFTs and dystrophic neurites, displayed characteristic emission”; the “Selectivity and affinity for tau deposits compared with PBB3” value is “higher selectivity and most likely a higher affinity for tau deposits than PBB3”. In addition, the “Fluorescence from Example Compound 3b observed” value on tau aggregates [2] (setting [7]) was “no observable Example Compound 3b fluorescence and no”. Besides, the “Fluorescence from Example Compound 3b observed” value at tau aggregates [2] (FIG. 7G, pre-incubated in PBS only, 10 nM Example Compound 3b) is “fluorescence was observed from the tau aggregates and yes”. On tau aggregates [6], the “Fluorescence from Example Compound 3b observed” value is “observed from the tau aggregates and could easily be observed from the q-FTAA-CN positive NFTs as well as from q-FTAA-CN negative dystrophic neurites and yes”; the “Overlap between Fluorescence from Example Compound 3b and fluorescence from q-FTAA-CN” value is “yes”.

For the origin of these results see patent publication US11434237B2, “Selective ligands for tau aggregates” (KARIN & STEN MORTSTEDT CBD SOLUTIONS AB, priority 2017, dated 2022).
